# Entries after “also recorded” stand apart in the source; their conditions may differ. Like-named read-outs stand apart in the source and are kept apart here.
# Tests used:
# [1] = Conversion of solid form on contact with aqueous media; type: physicochemical
# Text: Ritonavir(IV) can be prepared from Ritonavir(III). In a particular method, Ritonavir(III) is contacted with an aqueous medium for an amount of time sufficient to effect the change. For example, Ritonavir(III) placed on a vacuum filter can be washed with deionized water, thereby providing Ritonavir(IV).
# [2] = Thermal Gravimetric Analysis (TGA) weight loss; type: physicochemical; details: heated 10° C./min under dry nitrogen
# Text: TGA data were collected for each of the forms using a Q500 Thermogravimetric Analyzer (TA Instruments, 109 Lukens Drive, New Castle, Del. 19720), which uses as its control software Advantage for QW-Series, version 1.0.0.78, Thermal Advantage Release 2.0, © 2001 (TA instruments—Waters LLC). An aliquot of the sample was transferred into a platinum sample pan (Pan part # 952019.906; TA Instruments, 109 Lukens Drive, New Castle, Del. 19720). The pan was placed on the loading platform and was then automatically loaded in to the apparatus using the control software. Thermograms were typically obtained by individually heating the sample at 10° C./min from 25° C. to 300° C. under flowing dry nitrogen (compressed nitrogen, grade 4.8, BOC Gases, 575 Mountain Avenue, Murray Hill, N.J. 07974-2082), with a sample purge flow rate of 60 ml/min and a balance purge flow rate of 40 ml/min. Thermal transitions (weight changes) were viewed and analyzed using the analysis software Universal Analysis 2000 for Windows 95/95/2000/NT, version 3.1E; Build 3.1.0.40, © 1991–2001 (TA instruments—Waters LLC), provided with the instrument.
# Using the DSC and TGA data obtained for Ritonavir Forms III, IV, and V, and published data for Forms I and II, the different thermal characteristics of each of the forms of Ritonavir were determined. These characteristics are provided below in Table 1: […]
# [3] = Conversion of solid form when left in the crystallization mixture; type: physicochemical
# Experimental: In particular: (A) is a representative X-ray diffraction pattern of Ritonavir(I); (B) is an X-ray diffraction pattern of a sample of Ritonavir(V) after being left in the crystallization mixture for approximately 16 hours, with arrows indicating peaks that signify the presence of Ritonavir(I); and (C) is a representative X-ray diffraction pattern of Ritonavir(V). […] In particular: (A) provides a DSC trace of Ritonavir(I); (B) provides a DSC trace of a sample of Ritonavir(V) after being left in the crystallization mixture for approximately 16 hours, wherein two peaks are observed corresponding to Forms I and V; and (C) is a representative DSC trace of Ritonavir(V). Ritonavir(V) is readily prepared from solvent systems (e.g., binary solvent systems) comprised of an acetate and acetonitrile. In particular, it was discovered that after Ritonavir is dissolved in such a solvent system at an elevated temperature (e.g., about 70° C.), the slow cooling of the resulting mixtures (e.g., at a rate of about 5° C./minute until a temperature of about 5° C. is reached) typically yields crystals of Ritonavir(V), which can be isolated by filtration and optionally dried by air. Specific solvent systems comprise from about 25 to about 50 volume percent acetonitrile.
# [4] = crystalline form, oral; cited from earlier work
# [5] = data for Forms I and II obtained from Chemburkar; cited from earlier work
compound,measurement,setting,value
"CC(C)c1nc(CN(C)C(=O)N[C@H](C(=O)N[C@@H](Cc2ccccc2)C[C@H](O)[C@H](Cc2ccccc2)NC(=O)OCc2cncs2)C(C)C)cs1 (relative stereo) [Form III, 10-hydroxy-2-methyl-5-(1-methylethyl)-1-[2-(1-methylethyl)-4-thiazolyl]-3,6-dioxo-8,11-bis(phenylmethyl)-2,4,7,12-tetraazatridecan-13-oic acid, 5-thiazolylmethyl ester, [5S-(5R*,8R*,10R*,11R*)]]","form conversion while washed or incubated in aqueous media (DSC trace, FIG. 17)",[1]; washed or incubated in aqueous media,"conversion of Ritonavir Form III to Form IV, and subsequently to Form I"
same,TGA % weight loss (up to 130° C.),[2]; listed as III,30—60%
"CC(C)c1nc(CN(C)C(=O)N[C@H](C(=O)N[C@@H](Cc2ccccc2)C[C@H](O)[C@H](Cc2ccccc2)NC(=O)OCc2cncs2)C(C)C)cs1 (relative stereo) [Form IV, 10-hydroxy-2-methyl-5-(1-methylethyl)-1-[2-(1-methylethyl)-4-thiazolyl]-3,6-dioxo-8,11-bis(phenylmethyl)-2,4,7,12-tetraazatridecan-13-oic acid, 5-thiazolylmethyl ester, [5S-(5R*,8R*,10R*,11R*)]]",form conversion on exposure to an aqueous environment,"[1]; aqueous environment, extended time, about 15 to about 60 minutes",converts to Ritonavir Form I
same,form conversion on prolonged exposure to an aqueous environment,[1]; prolonged exposure to aqueous environment,converts the compound to Ritonavir Form II
same,TGA % weight loss (up to 130° C.),[2]; listed as IV,4—9%
"CC(C)c1nc(CN(C)C(=O)N[C@H](C(=O)N[C@@H](Cc2ccccc2)C[C@H](O)[C@H](Cc2ccccc2)NC(=O)OCc2cncs2)C(C)C)cs1 (relative stereo) [Form V, 10-hydroxy-2-methyl-5-(1-methylethyl)-1-[2-(1-methylethyl)-4-thiazolyl]-3,6-dioxo-8,11-bis(phenylmethyl)-2,4,7,12-tetraazatridecan-13-oic acid, 5-thiazolylmethyl ester, [5S-(5R*,8R*,10R*,11R*)]]",TGA % weight loss (up to 130° C.),[2]; listed as V,<0.3%
same,"form conversion when left in crystallization mixture (X-ray diffraction, DSC)",[3]; approximately 16 hours at nucleation temperature of 5° C.,formed Ritonavir(I)
same,form conversion on prolonged time in crystallization mixture,"[3]; prolonged period of time (hours to days), listed as Ritonavir(V)",form a mixture of Forms V and I; also recorded: provides Ritonavir Form I
"CC(C)c1nc(CN(C)C(=O)N[C@H](C(=O)N[C@@H](Cc2ccccc2)C[C@H](O)[C@H](Cc2ccccc2)NC(=O)OCc2cncs2)C(C)C)cs1 (single isomer, unassigned) [Form I, 10-hydroxy-2-methyl-5-(1-methylethyl)-1-[2-(1-methylethyl)-4-thiazolyl]-3,6-dioxo-8,11-bis(phenylmethyl)-2,4,7,12-tetraazatridecan-13-oic acid, 5-thiazolylmethyl ester, [5S-(5R*,8R*,10R*,11R*)]]",bioavailability,[4],not bioavailable; also recorded: poor bioavailability
same,TGA % weight loss (up to 130° C.),[5],<0.3%
"CC(C)c1nc(CN(C)C(=O)N[C@H](C(=O)N[C@@H](Cc2ccccc2)C[C@H](O)[C@H](Cc2ccccc2)NC(=O)OCc2cncs2)C(C)C)cs1 (single isomer, unassigned) [Form II, 10-hydroxy-2-methyl-5-(1-methylethyl)-1-[2-(1-methylethyl)-4-thiazolyl]-3,6-dioxo-8,11-bis(phenylmethyl)-2,4,7,12-tetraazatridecan-13-oic acid, 5-thiazolylmethyl ester, [5S-(5R*,8R*,10R*,11R*)]]",bioavailability,[4],poor bioavailability
same,TGA % weight loss (up to 130° C.),[5],<0.3%

# Source: patent publication US7205413B2, “Solvates and polymorphs of ritonavir and methods of making and using the same” (TransForm Pharmaceuticals, Inc., priority 2002, dated 2007)
